Values after ≈ are worked out from the molar mass of the structure shown. Structures can show the parent of a compound that is named as a salt. Where two headings read alike, the source gives them in different places.
How the values were obtained:
[1] = Plasma stability, human plasma (K2EDTA); format: in vitro ADME; conditions: human plasma, 2 μM, anti-coagulant K2-EDTA; for % Remaining at T120: 120 min; for half-life at 2 μM: pH 7.4, read-out: T1/2
Protocol: Individual stock solutions of propantheline and lovastatin were prepared at 10 mM in DMSO and were further diluted to 2 mM with DMSO.
Frozen matrices (Balb/c mouse, Wistar Han rat, Beagle dog, and human plasma containing K2EDTA as anti-coagulant) were thawed and centrifuged at 3100 rpm for 10 minutes at 4° C. to remove particulates. The lipid layer was then removed, and the supernatant was transferred to a new tube without disturbing the pellet. After the matrices were incubated at 37° C. for at least 10 minutes, the pH of each matrix was adjusted to pH 7.4, using 10% phosphoric acid or 1N sodium hydroxide as necessary. Test and control article stock solutions were spiked (2 μL) into matrix (1.998 mL) and mixed to final assay concentration of […]. Duplicate 30-μL aliquots of spiked plasma were transferred to matrix tubes in 96-well plate immediately after spiking for timepoints of 0, 30, 60, 120, 240, and 360 minutes. These tubes were then incubated at 37° C. with shaking and at each timepoint, the corresponding tubes containing samples were quenched with 180 μL of cold acetonitrile containing the internal standards. The quenched samples were vortex-mixed briefly and stored refrigerated. After the final time point (360 minutes), the plates with all quenched samples were vortex-mixed for 10 minutes and then centrifuged at 3100 rpm for 10 minutes at 4° C. to sediment the precipitated protein. The supernatant (50 μL) was transferred to a clean 96-well plate and diluted with 100 μL of water. The plates were stored refrigerated until analysis.
Data Analysis: Peak area ratios for IS-normalized test article and control article counts were used to calculate the percent remaining relative to the time zero (T0) value. As appropriate, results were plotted and further analyzed to calculate half-life (T1/2) values.
Mean peak area ratios were used to calculate the % remaining relative to the T0 value:
In this study, human, cynomolgus monkey, beagle dog, wistar hannover rat, and balb/c plasma stability was determined. Table 28 describes the results of the human plasma stability at 2 μM concentration and anti-coagulant K2-EDTA from 10 to 120 min. Table 29 describes the results of the cynomolgus monkey plasma stability at 2 μM concentration and anti-coagulant K2-EDTA. Table 30 describes the results of the beagle dog plasma stability at 2 μM concentration and anti-coagulant K2-EDTA. Table 31 describes the results of the wistar hannover rat plasma stability at 2 μM concentration and anti-coagulant K2-EDTA. Table 32 describes the results of the balb/c plasma stability at 2 μM concentration and anti-coagulant K2-EDTA.

[2] = Kinetic solubility (PBS pH 7.4; 4 hr); format: physicochemical; conditions: free base (Table 19), read-out: Kinetic Solubility
How it was run: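 Compound shaken in PBS pH 7.4 for 4 h at room temperature, then centrifuged. Supernatant, diluted with DMSO, quantified by LC-UV peak area against DMSO calibration curves.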

[3] = Mouse pharmacokinetics (oral cassette dosing), plasma; format: in vivo; conditions: BALB/c immunocompetent mice, 5 mg/kg p.o.
Protocol: Female mice (BALC/c) received a single dose (3 mice/treatment) of vehicle (10% 1N HCl:90% [20% […]) and at 0.5, 1, 2, 4, 8, 12 and 24-hour post dose humanely euthanized.
Blood was obtained through cardiac puncture into K+EDTA tubes, mixed by inversion and centrifuged to obtain the plasma. Blood will be kept on ice or at approximately 4° C. prior. Centrifugation will take place within 30 minutes of blood collection affording plasma samples. Plasma samples will be frozen as soon as possible after centrifugation and stored at −80° C. until analysis. All samples will be analysed by means of LC-MS/MS. Method development for bioanalysis will be performed by pharmacokinetics Department of Crown Bioscience (Taicang) Inc. using LC-MS/MS analysis (using Waters HSS T3 2.1×50 mm (1.8 um) LC column, and an API-4000 Electrospray MS unit). The results of a kinetic solubility (free base) study are represented in Table 19.

human hepatocytes = experiment: Hepatocyte stability, human; format: in vitro ADME; conditions: 2 μM, 0.5 million cells/ml
Protocol: (§1) In this study, human, cynomolgus monkey, beagle dog, wistar hannover rat, and balb/c mouse hepatocyle stability was determined.

balb/c mouse hepatocytes = experiment: Hepatocyte stability, balb/c mouse; format: in vitro ADME; conditions: 2 μM, 0.5 million cells/ml
Protocol: as §1

CYP1A2 = biological target: T1, CYP1A2 (Homo sapiens, UniProt P05177); experiment: CYP450 panel inhibition in human liver microsomes, 1A2 (phenacetin); conditions: for inhibition at 30 min, 10 µM: human, microsomes, pH 7.4
T1 sequence (P05177 1-516): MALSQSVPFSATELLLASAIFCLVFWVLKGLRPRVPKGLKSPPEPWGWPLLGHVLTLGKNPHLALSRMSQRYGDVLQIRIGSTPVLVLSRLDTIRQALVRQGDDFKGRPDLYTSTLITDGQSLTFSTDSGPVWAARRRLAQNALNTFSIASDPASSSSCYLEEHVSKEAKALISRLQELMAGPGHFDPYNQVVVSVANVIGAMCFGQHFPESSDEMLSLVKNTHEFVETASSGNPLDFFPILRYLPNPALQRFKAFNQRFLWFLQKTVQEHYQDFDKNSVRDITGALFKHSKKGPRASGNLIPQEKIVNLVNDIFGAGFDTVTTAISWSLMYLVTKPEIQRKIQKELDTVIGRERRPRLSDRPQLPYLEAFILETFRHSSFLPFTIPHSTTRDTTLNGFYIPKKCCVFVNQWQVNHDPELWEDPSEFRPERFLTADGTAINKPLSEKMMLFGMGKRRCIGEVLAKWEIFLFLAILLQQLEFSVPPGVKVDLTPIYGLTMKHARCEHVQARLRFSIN

CYP3A4 = CYP3A4 (Homo sapiens, UniProt P08684); experiment: CYP450 panel inhibition in human liver microsomes, 3A4 (midazolam / testosterone); conditions: 10 μM; for CYP-3A4 (Midazolam) mean percentage CYP inhibition: substrate midazolam; for CYP-3A4 (Testosterone) mean percentage CYP inhibition: substrate testosterone
[4] = Hepatocyte stability, cynomolgus monkey; format: in vitro ADME; conditions: 0.5 million cells/ml; for half-life at 2 μM: cynomolgus monkey hepatocytes; for CLint scaled at 2 μM: cynomolgus monkey, hepatocytes
Protocol: as §1

[5] = Caco-2 bidirectional permeability (absorption & efflux); conditions: human
[6] = PBS buffer, pH 7.4, aqueous buffer, kinetic from dmso stock
[7] = female, mouse, read-out: AUC0-t
[8] = read-out: CLint (L/hr/kg) (converted)

Chain of CYP3A4 (P08684 whole entry): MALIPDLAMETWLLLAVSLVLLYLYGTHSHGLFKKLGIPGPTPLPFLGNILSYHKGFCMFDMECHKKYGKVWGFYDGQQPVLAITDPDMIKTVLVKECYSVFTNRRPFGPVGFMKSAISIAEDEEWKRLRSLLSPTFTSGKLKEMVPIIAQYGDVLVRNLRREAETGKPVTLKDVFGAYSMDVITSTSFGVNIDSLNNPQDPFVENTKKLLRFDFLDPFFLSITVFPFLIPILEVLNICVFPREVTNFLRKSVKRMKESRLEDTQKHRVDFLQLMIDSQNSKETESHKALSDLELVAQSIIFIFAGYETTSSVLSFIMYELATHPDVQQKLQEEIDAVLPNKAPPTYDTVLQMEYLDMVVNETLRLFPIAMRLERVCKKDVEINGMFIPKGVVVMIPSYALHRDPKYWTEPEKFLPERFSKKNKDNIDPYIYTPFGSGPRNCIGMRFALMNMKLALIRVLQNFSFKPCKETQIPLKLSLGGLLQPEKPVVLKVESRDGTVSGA

Row | SMILES | % Remaining at T120 [1] | % Remaining At T120 (human hepatocytes; 120 min) | % Remaining At T120 (balb/c mouse hepatocytes) | CYP-3A4 (Midazolam) mean percentage CYP inhibition (CYP3A4) | CYP-3A4 (Testosterone) mean percentage CYP inhibition (CYP3A4) | half-life at 2 μM ([1]; 10 to 120 min) | solubility kinetic at 4 h [2, 6] | AUC(0-t) [3, 7] | Cmax ([3]; female, mouse, read-out: Cmax) | Tmax ([3]; female, mouse, read-out: Tmax) | half-life at 2 μM [4] | CLint scaled at 2 μM [4, 8] | CLint scaled at 2 μM ([4]; read-out: CLint (mL/min/kg)) | Papp A→B at 2 h, 10 μM [5] | Papp B→A at 2 h, 10 μM [5] | efflux ratio at 2 h, 10 μM [5] | inhibition at 30 min, 10 µM (CYP1A2) | other results
1 | CCS(=O)(=O)Nc1cccc(Cc2c(CN(C)C)c3ccc(OC(=O)N(C)C)cc3oc2=O)c1F [Compound 120] | 123.8% | 47.4% | 71.4% | 11.4% | 12.6% | – | – | – | – | – | – | – | – | – | – | – | – | T1/2 ([1]; 10 to 120 min): >2 h; solubility kinetic at 4 h [2]: >80 µM; AUC0-∞ [3]: 673.2 ng·h/mL; AUC(0-t) [3]: 669.3 ng·h/mL; Cmax [3]: 1422.7 ng/mL; T1/2 [3]: 0.3 h; Tmax [3]: 0.083 h; CLint (L/hr/kg) (human hepatocytes): 2.02 L/h/kg; CLint (mL/min/kg) (human hepatocytes): 33.6 mL/min/kg; T1/2 (human hepatocytes; 120 min): 1.85 h; CLint (L/hr/kg) (balb/c mouse hepatocytes): 3.98 L/h/kg; CLint (mL/min/kg) (balb/c mouse hepatocytes): 66.3 mL/min/kg; T1/2 (balb/c mouse hepatocytes): 4.12 h; CYP-1A2 (Phenacetin) mean percentage CYP inhibition (CYP1A2; human liver microsomes, 10 μM, substrate phenacetin): −3.7%
2 | CCS(=O)(=O)Nc1cccc(Cc2c(CN3CCNCC3)c3cc(Cl)c(OC(=O)N(C)C)cc3oc2=O)c1Cl [Compound 257, 6-chloro-3-(2-chloro-3-(ethylsulfonamido)benzyl)-2-oxo-4-(piperazin-1-ylmethyl)-2H-chromen-7-yl dimethylcarbamate hydrochloride] | 96.3% | 89.1% | 66.7% | – | 66.0% | 173 h | > 80 µM | 103 ng·h/mL | 20.3 ng/mL | 4 h | 2.98 h | 1.88 L/h/kg | 1.88 L/h/kg | 4.08 ×10⁻⁶ cm/s | 22.1 ×10⁻⁶ cm/s | 5.41 | 9.9% | –
3 | CNS(=O)(=O)Nc1cccc(Cc2c(CN(C)C)c3ccc(OC(=O)N(C)C)cc3oc2=O)c1Cl [Compound 274, 3-(2-chloro-3-((N-methylsulfamoyl)amino)benzyl)-4-((dimethylamino)methyl)-2-oxo-2H-chromen-7-yl dimethylcarbamate] | 121.2% | 47.5% | 64.3% | 20.1% | 50.4% | > 2 h | 78 µM (≈ 40.8 µg/mL) | 392 ng·h/mL | 796 ng/mL | 0.083 h | 0.985 h | 5.7 L/h/kg | 5.69 L/h/kg | 16.8 ×10⁻⁶ cm/s | 8.95 ×10⁻⁶ cm/s | 0.533 | -3.4% | AUC(0-inf) ([3]; female, mouse): 396 ng·h/mL; half-life ([3]; female, mouse): 0.3 h

— US20250179057A1, “MEK IMMUNE ONCOLOGY INHIBITORS AND THERAPEUTIC USES THEREOF” (Immuneering Corporation, priority 2022, published 2025)
